Assay results published in US20140315933A1, “CHEMICAL COMPOUNDS” (Pfizer Limited, priority 2013, published 2014).

Target: T1, URAT-1 transporter (Homo sapiens, UniProt Q96S37)
T1 construct: expressed in transfected cells
Experiment: URAT-1 inhibitor activity: [14C]-uric acid uptake into CHO-URAT1(L)GFP#8 (CHO#8) cells, scintillation proximity
Format: cell-based
Summary of the method: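 CHO cells stably expressing human URAT1 long isoform C-terminally fused to eGFP, preincubated 1 hour in chloride-containing buffer, then 15 minutes with compound (0–10 μM, 0.25% DMSO) in chloride-free buffer pH 7.4. [14C]-uric acid at 30 nM final added; uptake read by scintillation proximity after three hours at room temperature, dark.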

T1 sequence (Q96S37 with tags, fused parts or gaps): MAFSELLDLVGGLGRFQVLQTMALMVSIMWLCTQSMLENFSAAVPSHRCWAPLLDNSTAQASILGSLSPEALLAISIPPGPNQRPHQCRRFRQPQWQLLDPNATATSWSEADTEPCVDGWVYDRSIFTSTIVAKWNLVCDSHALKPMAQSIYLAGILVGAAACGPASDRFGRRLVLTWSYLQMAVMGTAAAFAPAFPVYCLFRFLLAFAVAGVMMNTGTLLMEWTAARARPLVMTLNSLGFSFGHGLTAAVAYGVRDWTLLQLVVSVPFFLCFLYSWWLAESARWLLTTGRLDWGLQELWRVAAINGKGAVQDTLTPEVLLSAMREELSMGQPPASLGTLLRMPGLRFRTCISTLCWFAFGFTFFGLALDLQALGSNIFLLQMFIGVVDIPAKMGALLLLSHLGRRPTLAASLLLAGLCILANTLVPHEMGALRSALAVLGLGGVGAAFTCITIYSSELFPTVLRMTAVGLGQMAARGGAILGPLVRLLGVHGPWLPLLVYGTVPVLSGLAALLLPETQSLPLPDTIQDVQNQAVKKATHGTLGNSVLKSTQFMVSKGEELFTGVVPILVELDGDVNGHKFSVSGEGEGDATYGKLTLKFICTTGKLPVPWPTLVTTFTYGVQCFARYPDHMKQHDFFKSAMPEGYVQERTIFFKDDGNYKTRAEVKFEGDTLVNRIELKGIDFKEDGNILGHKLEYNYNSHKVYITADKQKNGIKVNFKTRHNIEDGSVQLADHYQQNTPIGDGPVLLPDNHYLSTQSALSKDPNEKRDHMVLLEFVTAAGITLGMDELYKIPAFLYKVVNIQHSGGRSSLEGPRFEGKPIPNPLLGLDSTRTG

SMILES	IC50 [nM]
O=S(=O)(Nc1cscn1)c1cc(Cl)c(Oc2ccc(C(F)(F)F)cc2Br)cc1F [Example 161, 4-[2-bromo-4-(trifluoromethyl)phenoxy]-5-chloro-2-fluoro-N-(1,3-thiazol-4-yl)benzenesulfonamide]	> 4850
CC(C)Nc1ccc(Oc2ccc(S(=O)(=O)Nc3nccs3)cc2C#N)cn1 [Example 188, 3-cyano-4-{[6-(propan-2-ylamino)pyridin-3-yl]oxy}-N-(1,3-thiazol-2-yl)benzenesulfonamide]	688
CCNc1ccc(Oc2ccc(S(=O)(=O)Nc3nccs3)cc2C#N)cn1 [Example 189, 3-cyano-4-{[6-(ethylamino)pyridin-3-yl]oxy}-N-(1,3-thiazol-2-yl)benzenesulfonamide]	> 10000
N#Cc1cc(S(=O)(=O)Nc2nccs2)ccc1Oc1ccc(OCC(F)(F)F)nc1 [Example 190, 3-cyano-N-(1,3-thiazol-2-yl)-4-{[6-(2,2,2-trifluoroethoxy)pyridin-3-yl]oxy}benzenesulfonamide]	> 10000
CC(C)Oc1ccc(Oc2ccc(S(=O)(=O)Nc3nccs3)cc2C#N)cn1 [Example 192, 3-cyano-4-{[6-(propan-2-yloxy)pyridin-3-yl]oxy}-N-(1,3-thiazol-2-yl)benzenesulfonamide]	> 10000
N#Cc1ccc(Oc2ccc(S(=O)(=O)Nc3ncc(F)s3)cc2C#N)cc1Cl [Example 244, 4-(3-chloro-4-cyanophenoxy)-3-cyano-N-(5-fluoro-1,3-thiazol-2-yl)benzenesulfonamide]	365
N#Cc1cc(Oc2ccc(S(=O)(=O)Nc3ncc(F)s3)cc2C#N)ccc1F [Example 245, 3-cyano-4-(3-cyano-4-fluorophenoxy)-N-(5-fluoro-1,3-thiazol-2-yl)benzenesulfonamide]	2000
N#Cc1ccc(Oc2ccc(S(=O)(=O)Nc3ncc(Cl)s3)cc2C#N)cc1Cl [Example 247, 4-(3-chloro-4-cyanophenoxy)-N-(5-chloro-1,3-thiazol-2-yl)-3-cyanobenzenesulfonamide]	450
O=S(=O)(Nc1nncs1)c1ccc(Oc2ccc(F)c(F)c2)cc1Cl [Example 249, 2-chloro-4-(3,4-difluorophenoxy)-N-(1,3,4-thiadiazol-2-yl)benzenesulfonamide]	> 10000
N#Cc1ccc(Oc2c(F)cc(S(=O)(=O)Nc3ncns3)cc2Br)cc1Cl [Example 250, 3-bromo-4-(3-chloro-4-cyanophenoxy)-5-fluoro-N-(1,2,4-thiadiazol-5-yl)benzenesulfonamide]	1880
CC(C)Oc1ncc(Oc2ccc(S(=O)(=O)Nc3nncs3)cc2C#N)cc1Cl [Example 333]	7540
N#Cc1cc(S(=O)(=O)Nc2nncs2)ccc1Oc1cnc(OC(F)F)c(Cl)c1 [Example 334]	2030
CC(Oc1ncc(Oc2ccc(S(=O)(=O)Nc3nncs3)cc2C#N)cc1Cl)C(F)(F)F (stereo not drawn) [Example 335]	3260
N#Cc1cc(S(=O)(=O)Nc2nncs2)ccc1Oc1cnc(OC2CCC2)c(Cl)c1 [Example 336]	3910
Cc1cc(Oc2ccc(S(=O)(=O)Nc3nncs3)cc2C#N)cc(C)c1C#N [Example 337, 3-cyano-4-(4-cyano-3,5-dimethylphenoxy)-N-(1,3,4-thiadiazol-2-yl)benzenesulfonamide]	112
COc1ncc(Oc2ccc(S(=O)(=O)Nc3nncs3)cc2C#N)cc1Cl [Example 338]	797
CC(C)(F)COc1ncc(Oc2ccc(S(=O)(=O)Nc3nncs3)cc2C#N)cc1Cl [Example 339]	> 10000
Cc1nnc(NS(=O)(=O)c2ccc(Oc3ccc(C#N)c(Cl)c3)c(C#N)c2)s1 [Example 340, 4-(3-chloro-4-cyanophenoxy)-3-cyano-N-(5-methyl-1,3,4-thiadiazol-2-yl)benzenesulfonamide]	484
N#Cc1cc(S(=O)(=O)Nc2nncs2)ccc1Oc1ccc(CO)c(Cl)c1 [Example 341, 4-[3-chloro-4-(hydroxymethyl)phenoxy]-3-cyano-N-(1,3,4-thiadiazol-2-yl)benzenesulfonamide]	9

SMILES	IC50 [nM]
N#Cc1cc(S(=O)(=O)Nc2nccs2)ccc1Oc1ccc(C(F)(F)F)cc1Br [compound 166]	2680
CC(C)c1cc(C#N)cc(Oc2ccc(S(=O)(=O)Nc3nccs3)cc2C#N)c1 [compound 174]	237
N#Cc1cc(S(=O)(=O)Nc2nccs2)ccc1Oc1ccccc1CCO [compound 176]	> 6000
N#Cc1cc(S(=O)(=O)Nc2nccs2)ccc1Oc1cccc(Cl)c1C#N [compound 180]	814
N#Cc1cc(S(=O)(=O)Nc2nccs2)ccc1Oc1ccccc1Cl [compound 181]	1220
N#Cc1cc(S(=O)(=O)Nc2nccs2)ccc1Oc1ccccc1Br [compound 182]	1330
N#Cc1cc(Oc2ccc(S(=O)(=O)Nc3ncc(Cl)s3)cc2C#N)ccc1F [compound 193]	834
N#Cc1cc(Oc2ccc(S(=O)(=O)Nc3ncns3)cc2F)ccc1F [compound 194]	> 7150
O=S(=O)(Nc1ncns1)c1ccc(Oc2ccc(F)c(F)c2)c(F)c1 [compound 195]	2240
O=S(=O)(Nc1ncns1)c1cc(F)c(Oc2ccc(F)c(F)c2)cc1F [compound 196]	1580
O=S(=O)(Nc1ncns1)c1cc(F)c(Oc2ccc(F)c(F)c2)c(F)c1 [compound 198]	2190
N#Cc1cc(Oc2ccc(S(=O)(=O)Nc3nncs3)cc2C#N)ccc1F [compound 199]	> 6370
Cc1cc(S(=O)(=O)Nc2nncs2)c(F)cc1Oc1ccc(F)c(F)c1 [compound 200]	> 10000
O=S(=O)(Nc1ncns1)c1ccc(Oc2ccc(F)c(F)c2)c(Cl)c1 [compound 202]	823
N#Cc1ccc(Oc2ccc(S(=O)(=O)Nc3nncs3)cc2Cl)cc1Cl [compound 203]	387
O=S(=O)(Nc1nncs1)c1ccc(Oc2ccc(F)c(F)c2)c(Cl)c1 [compound 204]	317
N#Cc1cc(Oc2c(F)cc(S(=O)(=O)Nc3ncns3)cc2F)ccc1F [compound 205]	> 6810
N#Cc1cc(Oc2ccc(S(=O)(=O)Nc3ncns3)cc2C#N)ccc1F [compound 206]	> 3320
N#Cc1cc(Oc2ccc(S(=O)(=O)Nc3ncns3)cc2Cl)ccc1F [compound 207]	747

The remaining lines, values ahead:

IC50 [nM]	SMILES
1080	CN(C)c1ccc(Oc2ccc(S(=O)(=O)Nc3nccs3)cc2C#N)cn1 [Example 186, 3-cyano-4-{[6-(dimethylamino)pyridin-3-yl]oxy}-N-(1,3-thiazol-2-yl)benzenesulfonamide]
> 6640	CNc1ccc(Oc2ccc(S(=O)(=O)Nc3nccs3)cc2C#N)cn1 [Example 187, 3-cyano-4-{[6-(methylamino)pyridin-3-yl]oxy}-N-(1,3-thiazol-2-yl)benzenesulfonamide]
> 10000	CCOc1ccc(Oc2ccc(S(=O)(=O)Nc3nccs3)cc2C#N)cn1 [Example 191, 3-cyano-4-[(6-ethoxypyridin-3-yl)oxy]-N-(1,3-thiazol-2-yl)benzenesulfonamide]
77	N#Cc1cc(S(=O)(=O)Nc2nccs2)ccc1Oc1ccc(F)c(F)c1 [Example 243, 3-cyano-4-(3,4-difluorophenoxy)-N-(1,3-thiazol-2-yl)benzenesulfonamide]
699	N#Cc1cc(Oc2ccc(S(=O)(=O)Nc3nccs3)cc2C#N)ccc1F [Example 246, 3-cyano-4-(3-cyano-4-fluorophenoxy)-N-(1,3-thiazol-2-yl)benzenesulfonamide]
> 1200	N#Cc1cc(S(=O)(=O)Nc2ncc(F)s2)ccc1Oc1ccc(F)c(F)c1 [Example 248, 3-cyano-4-(3,4-difluorophenoxy)-N-(5-fluoro-1,3-thiazol-2-yl)benzenesulfonamide]
565	N#Cc1cc(S(=O)(=O)Nc2nccs2)ccc1Oc1ccc(Cl)cc1OC(F)(F)F [compound 162]
681	N#Cc1cc(S(=O)(=O)Nc2nccs2)ccc1Oc1ccc(Cl)cc1C(F)(F)F [compound 163]
> 10000	N#Cc1cc(S(=O)(=O)Nc2nccs2)ccc1Oc1ccc(OC(F)(F)F)cc1Br [compound 164]
505	N#Cc1cc(S(=O)(=O)Nc2nccs2)ccc1Oc1ccc(I)cc1 [compound 165]
166	N#Cc1cc(S(=O)(=O)Nc2nccs2)ccc1Oc1cccc(I)c1 [compound 167]
161	N#Cc1cc(S(=O)(=O)Nc2nccs2)ccc1Oc1ccc(Br)c(F)c1 [compound 168]
73	N#Cc1cc(S(=O)(=O)Nc2nccs2)ccc1Oc1ccc(Cl)c(I)c1 [compound 169]
> 1260	N#Cc1cc(S(=O)(=O)Nc2nccs2)ccc1Oc1ccc(Br)cc1F [compound 170]
671	N#Cc1cc(S(=O)(=O)Nc2nccs2)ccc1Oc1ccc(Br)nc1 [compound 171]
917	N#Cc1cc(S(=O)(=O)Nc2nccs2)ccc1Oc1ccc(Cl)nc1 [compound 172]
> 3660	COc1ccc(Oc2ccc(S(=O)(=O)Nc3nccs3)cc2C#N)cn1 [compound 173]
> 5440	N#Cc1cc(S(=O)(=O)Nc2nccs2)ccc1Oc1cccc(CCO)c1 [compound 175]
584	N#Cc1cc(S(=O)(=O)Nc2nccs2)ccc1Oc1cccc(CO)c1 [compound 177]
645	N#Cc1cc(S(=O)(=O)Nc2nccs2)ccc1Oc1ccc(I)cc1F [compound 178]
121	CCc1cc(F)ccc1Oc1ccc(S(=O)(=O)Nc2nccs2)cc1C#N [compound 179]
> 6030	N#Cc1cc(S(=O)(=O)Nc2nccs2)ccc1Oc1ccccc1F [compound 183]
> 6240	N#Cc1cc(S(=O)(=O)Nc2nccs2)ccc1Oc1ccc(N)cc1 [compound 184]
225	N#Cc1cc(S(=O)(=O)Nc2ncc(Cl)s2)ccc1Oc1ccc(F)c(F)c1 [compound 197, N-(5-chloro-1,3-thiazol-2-yl)-3-cyano-4-(3,4-difluorophenoxy)benzenesulfonamide]
651	N#Cc1cc(S(=O)(=O)Nc2nncs2)ccc1Oc1ccc(F)c(F)c1 [compound 201]
